# Reference: patent publication US8703424B2, “Predicting human developmental toxicity of pharmaceuticals using human stem-like cells and metabolomics” (Stemina Biomarker Discovery, Inc., priority 2010, dated 2014)
# What was measured:
# WA09 hESCs = assay: Random forest prediction of teratogenicity from metabolomics of spent media of dosed hESCs; format: cell-based, human; conditions: blind study; model trained on TS1, 142 mass features; circulating dose
# WA09 hES cells = assay: Pathway enrichment analysis of annotated mass features on KEGG human metabolic networks (Example 8); format: cell-based; conditions: across dose levels; positive and negative features
# Method: Pathways enrichment analysis was performed by mapping annotated mass features for each experimental compound to human metabolic networks using KEGG compound ids. Hypergeometric p-values and false discovery rates (FDR) were used to assign a quantitative measure of statistical significance to each network. Features derived from ESI negative and positive mode for each experimental compound were pooled for this analysis. False positive results can be generated by isobaric compounds that generate multiple “hits” in a network from the same mass, so unique masses instead of unique compound ids were used for these calculations. The relevant parameters used to calculate hypergeometric p-values for each network were: the number of unique mass “hits”, the number of unique masses in the network, and the total number of unique masses in all of the human networks in the KEGG database. For each experimental compound, the p-values for the derived networks were converted to FDR using the Benjamini and Hochberg (1995) correction.
# Feature Selection was performed on a per compound basis using a one-way anova evaluating the difference of dose level means and on a per dose basis using Welch T-tests and PLS-DA VIP score. […] If a feature was selected as interesting in a drug or dose level comparison it was then evaluated experiment wide for fold changes. Following feature selection only significant features putatively annotated as mammalian in origin and present on KEGG network diagrams were further evaluated. […] These selection criteria focused the analysis on biochemical pathways.
# Following selection, features were passed through a quality control evaluation of extracted ion chromatograms (EICs) to confirm the validity of individual mass features. Features passing quality control were further evaluated to confirm estimated fold changes. After removing poor quality and duplicate features, the remaining ESI positive and ESI negative mode features were combined into a unified dataset for evaluation of pathway enrichment by treatment.
# [1] = test system: WA09 human embryonic stem (hES) cells; assay: PLS-DA prediction of teratogenicity from secretome of treated hES cells (Example 9)
# Description: These included 11 known teratogens and 11 known non-teratogens. The current model is based on the mean fold change (treatment versus its associated intra-experimental control) of 15 metabolites common among the secretome of hES cells treated with pharmaceutical agents and unknown chemical compounds.
# [2] = DevTox pharmaceutical, high dose (H = 10x circulating dose)
# [3] = DevTox pharmaceutical, low dose (L = 0.1x circulating dose)
# [4] = EPA compounds, high dose level (H)
# [5] = EPA compounds, low dose level (L)
# [6] = EPA compounds, medium dose level (M)
structure (smiles),measurement,setting,value
CN(C)CCOC(C)(c1ccccc1)c1ccccn1 (centres unmarked) [Doxylamine],Predicted teratogenicity (random forest statistical model),WA09 hESCs,Non
same,"Number of unique KEGG ID annotations: Alanine, aspartate and glutamate metabolism",WA09 hES cells,1
same,Number of unique KEGG ID annotations: Arginine and proline metabolism,WA09 hES cells,1
same,Number of unique KEGG ID annotations: Ascorbate and aldarate metabolism,WA09 hES cells,2
same,Number of unique KEGG ID annotations: Citrate cycle (TCA cycle),WA09 hES cells,1
same,Number of unique KEGG ID annotations: Cysteine and methionine metabolism,WA09 hES cells,2
same,Number of unique KEGG ID annotations: Galactose metabolism,WA09 hES cells,2
same,Number of unique KEGG ID annotations: Glutathione metabolism,WA09 hES cells,1
same,Number of unique KEGG ID annotations: Glyoxylate and dicarboxylate metabolism,WA09 hES cells,3
same,Number of unique KEGG ID annotations: Nicotinate and nicotinamide metabolism,WA09 hES cells,5
same,Number of unique KEGG ID annotations: Pantothenate and CoA biosynthesis,WA09 hES cells,3
same,Number of unique KEGG ID annotations: Pentose and glucuronate interconversions,WA09 hES cells,3
same,Number of unique KEGG ID annotations: Pentose phosphate pathway,WA09 hES cells,1
same,Number of unique KEGG ID annotations: Propanoate metabolism,WA09 hES cells,3
same,Number of unique KEGG ID annotations: Pyruvate metabolism,WA09 hES cells,6
same,Number of unique KEGG ID annotations: Vitamin B6 metabolism,WA09 hES cells,3
same,PLS-DA classification,[1]; 0.38 μM,not classified as a teratogen
same,% Non (PLS-DA class probability non-teratogen),[1]; [2],0.38
same,% Ter (PLS-DA class probability teratogen),[1]; [2],0.62
same,Confidence (difference between class probabilities),[1]; [2],0.24
same,Prediction,[1]; [2],Ter
same,% Non (PLS-DA class probability non-teratogen),[1]; [3],0.58
same,% Ter (PLS-DA class probability teratogen),[1]; [3],0.42
same,Confidence (difference between class probabilities),[1]; [3],0.16
same,Prediction,[1]; [3],Non
same,% Non (PLS-DA generated class probability),[1]; [4],0.45
same,% Ter (PLS-DA generated class probability),[1]; [4],0.55
same,Prediction,[1]; [4],Ter
same,Confidence (difference between class probabilities),"[1]; EPA compounds, high dose level (H), values less than 0.1 inconclusive",0.1
same,% Non (PLS-DA generated class probability),[1]; [5],0.41
same,% Ter (PLS-DA generated class probability),[1]; [5],0.59
same,Prediction,[1]; [5],Ter
same,Confidence (difference between class probabilities),"[1]; EPA compounds, low dose level (L), values less than 0.1 inconclusive",0.18
same,% Non (PLS-DA generated class probability),[1]; [6],0.44
same,% Ter (PLS-DA generated class probability),[1]; [6],0.56
same,Prediction,[1]; [6],Ter
same,Confidence (difference between class probabilities),"[1]; EPA compounds, medium dose level (M), values less than 0.1 inconclusive",0.12
same,Teratogenicity Classification,"[1]; [Doxylamine] 0.038 μm, devTox low",Non
same,Teratogenicity Classification,"[1]; [Doxylamine] 0.38 μm, devTox medium",Non
same,Teratogenicity Classification,"[1]; [Doxylamine] 1 μm, EPA low",Ter
same,Teratogenicity Classification,"[1]; [Doxylamine] 3.8 μm, devTox high",Ter
same,Teratogenicity Classification,"[1]; [Doxylamine] 10 μm, EPA medium",Ter
same,Teratogenicity Classification,"[1]; [Doxylamine] 100 μm, EPA high",Ter
same,"PLS-DA classification, these studies (EPA set)","[1]; all three concentrations (low, medium, and high)",teratogen
same,"PLS-DA classification, developmental toxicity assay (Table 11)",[1]; high concentration,teratogen
same,"PLS-DA classification, developmental toxicity assay (Table 11)",[1]; low and medium dose,non-teratogen
same,PLS-DA classification of EPA-provided chemical agents,[1]; overall conclusion,potential teratogens
